Data set [1] has as its system human corneal endothelial cells. As to the kind of experiment: Na+/K+-ATPase and ZO-1 immunostaining (pumping and barrier function markers). The data set is classed as cell-based. Conditions: 1, 3, 10 μM; immunostaining after 20 days. The procedure: (§1) *Human corneal endothelial cells (HCEC, where the cells were obtained and culturing method thereof): HCEC was cultured as follows. In short, Descemet's membrane including corneal endothelial cells was peeled off from a corneal for research purchased from the Seattle Eye Bank, and the corneal endothelial cells were mechanically peeled off with a basal membrane. After collagenase (ROCHE catalog No: 10 103 586 001) was used to detach and collect the corneal endothelial cell from the basal membrane (typically 1 mg/mL collagenase A (Roche Applied Science) was used for treatment at 37° C. for 2 hours), the cells were subjected to primary culture. The medium used was Opti-MEM I Reduced-Serum Medium, Liquid (INVITROGEN catalog No.: 31985-070) to which 8% fetal bovine serum (FBS) (BIOWEST, catalog No.: S1820-500), […] of CaCl2.2H2O (SIGMA catalog No.: C7902-500G), 0.08% of chondroitin sulfate (SIGMA catalog No.: C9819-5G), 20 μg/ml of ascorbic acid (SIGMA catalog No.: A4544-25G), 50 μg/ml of gentamicin (INVITROGEN catalog No.: 15710-064) and 5 ng/ml of EGF (INVITROGEN catalog No.: PHG0311) were added and acclimated for a 3T3 feeder cell. […] Immunostaining was applied to the cells for observation with a fluorescence microscope. […]

Data set [2] shares this test system. As to the kind of experiment: Ki67 immunostaining of cultured human corneal endothelial cells. To be noted: 10 μM; after 3 days; vs control. The data set is classed as cell-based. The protocol:
as §1

For data set [3] the following is noted: cited from earlier work.

Regarding `C[S+]([O-])c1ccc(-c2nc(-c3ccncc3)c(-c3ccc(F)cc3)[nH]2)cc1` (stereo not shown) [SB203580, 4-(4-fluorophenyl)-2-(4-methylsulfinylphenyl)-5-(4-pyridyl)-1H-imidazole], the “expression of Na+/K+-ATPase and ZO-1” value in data set [1] is “express Na^+/K^+-ATPase and ZO-1 and to maintain normal functions in all cells”. In addition, the “Expression of Ki67 (Ki67 positive cells)” value in data set [2] was “significantly more cells”. Also, in data set [3] (methanol), the solubility in methanol entry was “soluble”. Further, the “solubility in water (pharmacopoeia class)” value in data set [3] (water) was “difficult to dissolve (100 mL or greater and less than 1000 mL)”.
